Data as given in patent US7569221B2, “Compositions and methods for identifying agents that alter expression of survivin” (Health Research, Inc., priority 2006, dated 2009).

Assays:
human survivin promoter [1] = experiment: in vivo luciferase imaging of castrated SPlucTg male mice after androgen treatment; design: species or system mouse; settings: testosterone pills imbedded 14 days after castration, seen on Day 11 and Day 14 post pill
Excerpt: FIG. 19 is a photographic representation (obtained using the XENOGEN IVIS® in vivo Imaging System) of transient turn-on of survivin promoter activity by imbedding testosterone pills in castrated SPlucTg mice: Testosterone pills were imbedded in the back of the neck of SPlucTg mice (an example shown here is the F1 5556m derived from 5196m founder) 14 days after castration (prostate tissue shrinking to the minimal size by apoptosis in the 14 days). After testosterone pill implantation, luciferase activity was monitored using in vivo imaging.
Generation of SPlucTg mice: The targeting construct, pHScyc4.08-luc, was digested with Sal I and Sac I to isolate the 8.5 kb transgene cassette (HScyc4.08-luc) from the bacterial plasmid backbone (see FIG. 2). […] Cesium chloride-purified HScyc4.08-luc DNA was microinjected into the pronuclei of day-0.5 embryos of C57BL/6 mice. Injected embryos were implanted into the oviducts of pseudo-pregnant female Swiss Webster mice. […]
(§1) Using a survivin-specific monoclonal antibody termed 12C4, we have recently shown that testis is the only human organ that highly expresses survivin (60-70% of spermatogonia) (19). Consistent with this observation, luciferase activity in SPlucTg mice was detected only in the testis of male mice but not in female mice (founder, F1 and F2). […]

cancer cells = experiment: cell death of treated cancer cells; format: cell-based
survivin [2] = settings: cancer cells; reference 15; cited from earlier work
human survivin promoter [3] = experiment: luciferase activity assay in cancer cell clones stably transfected with pNeoHScyc4.08-luc; format: cell-based
Experimental: Methods for transfection, G418 selection, single clone isolation and amplification: Cells were first tested for G418 resistance with a series of G418 concentrations. For transfection, cells were seeded in a 6-well cell culture plate, one day before transfection, to a cell concentration in which cell would grow into 40-70% confluence on the second day for transfection. Cells were transfected with the Sal I-linearized pNeoHScyc4.08-luc or pNeoHS4.04-luc using LIPOFECTAMINE™ 2000 (INVITROGEN). Briefly, 1-2 μg (dependent on cell transfection efficiency) of the linearized plasmid DNA in 100 μl serum-free DMEM were mixed with 1.5-3 μl Lipofectamine™ 2000 in 100 μl serum-free DMEM in a 1.5-ml tube for each well of 6-well plates. After incubation at room temperature for 20-25 minutes, the DNA/Lipofectamine™ 2000 mixture was added to each well containing 500 μl serum-free DMEM medium in the 6-well plate. […]
Methods for measuring luciferase activity and isolation of the correct cell clones: For luciferase assays, the Luciferase Reporter Assay System (PROMEGA) was used. […] Luciferase activity for each cell clones was determined every 4-5 sub-culture/passing. […]
Therefore, we used Hedamycin as a positive control to test our genetically modified cancer cell models. […] After cells were treated with 10 nM hedamycin for 16-24 hours, cells were lysed and luciferase activity was measured as described above. […]

survivin [4] = experiment: survivin expression and survivin promoter activity in cancer cells (earlier work); format: cell-based, human; settings: binds to the survivin promoter
human survivin promoter [5] = experiment: in vivo luciferase imaging of SPlucTg mice during liver injury and regeneration after CCl4; design: species or system mouse
Experimental: FIG. 20 is a photographic representation (obtained using the XENOGEN IVIS® in vivo Imaging System) of dose-dependent transient turn-on of survivin promoter activity during SPlucTg mouse liver injury and regeneration using carbon tetrachloride (CCl4): A 10% of CCl4 solution formulated in corn oil was prepared. The following dose was injected intraperitoneally on Day 0: 50 μl/25 g (panel A), 100 μl/25 g (panel B), 200 μl/25 g (panel C) and 300 μl/25 g (panel D). The in vivo imaging was monitored on Day 1 (24 h), Day 2 (48 h), Day 3 (72 h), Day 4 (96 h) and Day 6 (144 h) after administration of CCl4 (arrows indicate luciferase expression). […]
as §1
Based on this observation, we tested whether we could observe luciferase activity during mouse liver regeneration after injury. […] Importantly, the mouse liver injury and luciferase activity monitored by in vivo imaging is CCl4 dose-dependent, which provides a novel basis for testing compound-induced tissue injury/toxicity.

## C[C@]12CC[C@H]3[C@@H](CCC4=CC(=O)CC[C@@]43C)[C@@H]1CC[C@@H]2O [testosterone]
Human survivin promoter [1]
  luciferase activity (survivin promoter activity) by in vivo imaging: Transient induction of survivin promoter activity
Human survivin promoter [1]; listed as androgen
  luciferase activity (survivin promoter activity) by in vivo imaging: transient luciferase activity

## Cc1cc2c(c3oc(C4(C)OC4C4OC4C)cc(=O)c13)C(=O)c1c(O)c(C3CC(C)(N(C)C)C(O)C(C)O3)cc(C3CC(N(C)C)C(O)C(C)O3)c1C2=O (stereo not shown) [hedamycin]
Cancer cells; 10 nM for 16-24 hours
  cell death: do not show significant cell death
Survivin [2]
  survivin expression and survivin promoter activity: inhibits survivin expression and downregulates survivin promoter activity
Human survivin promoter [3]; 10 nM hedamycin for 16-24 hours, A549, 2008, HCT116, PC-3 clones with pNeoHScyc4.08-luc (FIGS. 5-8)
  luciferase activity: significantly inhibited

## CCOc1ccc(-c2nc3ccc(-c4nc5ccc(N6CCN(C)CC6)cc5[nH]4)cc3[nH]2)cc1 [Hoechst33342]
Cancer cells; 500 nM for 16-24 hours
  cell death: does not result in significant cell death
Survivin [4]
  survivin promoter activity and endogenous survivin gene expression: upregulates the survivin promoter activity and endogenous survivin gene expression
Human survivin promoter [3]; 500 nM Hoechst33342 for 16-24 hours, A549, 2008, HCT116, PC-3 clones with pNeoHScyc4.08-luc (FIGS. 9-12)
  survivin promoter/luciferase activity: upregulates survivin promoter/luciferase activity

## ClC(Cl)(Cl)Cl [CCl4, carbon tetrachloride]
Human survivin promoter [5]; intraperitoneal CCl4, 50, 100, 200, 300 μl/25 g
  dose dependence of mouse liver injury and luciferase activity: dose-dependent
Human survivin promoter [5]; intraperitoneal injection of 10% CCl4 in corn oil, 50-300 μl/25 g, Day 1-6
  luciferase activity during liver regeneration by in vivo imaging: strong luciferase activity
